Experimental findings from patent publication US10898613B2, “Hyaluronic acid gel with a divalent zinc cation” (Nestlé Skin Health SA, priority 2016, dated 2021) are described below.

A short description of data set [1]: Zinc release from gels, USP-paddle apparatus with gel containers, Zn content by ICP. Type of data set: physicochemical. Conditions: zinc released from HA gels of Example 4 with 1 mM zinc salt; 600 ml release medium, 30 rpm, 37° C. Here is the method: The zinc release from the gels was measured by the USP-paddle apparatus using special gel containers in which the gel was placed. A gel containing 1 mM ZnCl2 was manufactured according to Example 1. The gel was filled into 7 gel containers with a fixed volume of 1 ml. The geometry of the filled gel was a cylinder […] in diameter and 3 mm deep. The gels were covered by a mesh-size plastic net (PA80 m=200 mesh, AB Derma) and a coarse stainless steel net, care was taken to assure that no air was trapped between the gel and the plastic net.
Each gel container was immersed in 600 ml thermostated release medium, stirred at 30 rpm and maintained at 37° C. using a Distek Evolution 6100 (North Brunswick, N.J.). At predetermined time points, gel containers were removed and the Zn content in the container was determined using ICP.
Gels prepared according to example 4 containing zinc chloride (1 mM), zinc gluconate (1 mM) and zinc citrate (1 mM) respectively were analyzed as described in Example 7.

Data set [2] is described as follows: Rheology (elastic modulus G′ within the LVR) of HA gel formulations after autoclaving. Type of data set: physicochemical. Conditions: after autoclaving (F0~19); 1 mM Zn salt, HA 20 mg/mL. The method, then: The rheological properties of the formulations were analyzed using an Ahres G2 reometer (measure system PP 40, gap 1.00 mm). Initially a strain sweep was made to find the linear viscoelastic region (LVR) and then the viscoelastic properties were measured within the LVR.

Turning to `[Cl-].[Cl-].[Zn+2]` [zinc chloride], the “time for 25% released” value in data set [1] is approximately 75 h. Besides, the “Effect of Zn on G′ of the gel versus reference swelled in buffer only” value in data set [2] is reported as “stabilizing effect”.
For `O=C([O-])CC(O)(CC(=O)[O-])C(=O)[O-].O=C([O-])CC(O)(CC(=O)[O-])C(=O)[O-].[Zn+2].[Zn+2].[Zn+2]` [zinc citrate] the same measures were approximately 3 h and “stabilizing effect”.
For zinc gluconate the same measures were approximately 24 h and “stabilizing effect”.
